Assays:
[1] = target: T1, HDAC3 (in complex with the deacetylase activation domain of the human NCOR2 (amino acids 395-498)) (Homo sapiens, UniProt O15379); test: In vitro HDAC activity assay (HDAC-Glo I/II), HDAC3; format: biochemical; conditions: HDAC-Glo I/II; average of three independent assays ± standard deviation
T1 construct: purchased BPS Bioscience 50003
Description: (§1) Purified HDAC1, HDAC2, and HDAC3 (in complex with the deacetylase activation domain of the human NCOR2 (amino acids 395-498)) were obtained from Enzo Life Sciences (HDAC1, catalog # BML-SE456-0050) and BPS Bioscience (HDAC2, catalog #50002 and HDAC3, catalog #50003), respectively. The enzyme activities were tested using the HDAC-Glo I/II reagents (Promega) according to a protocol provided by the manufacturer.

HDAC2 = HDAC2 (Homo sapiens, UniProt Q92769); test: In vitro HDAC activity assay (HDAC-Glo I/II), HDAC2; format: biochemical; parameters: purchased BPS Bioscience 50002; conditions: average of three independent assays ± standard deviation
Description: as §1

HDAC1 = HDAC1 (Homo sapiens, UniProt Q13547); test: In vitro HDAC activity assay (HDAC-Glo I/II), HDAC1; format: biochemical; parameters: purchased Enzo Life Sciences BML-SE456-0050; conditions: average of three independent assays ± standard deviation
Description: as §1

HDAC3 = HDAC3 (Homo sapiens, UniProt O15379); test: HDAC3 degradation in breast cancer cell lines, Western blot; format: cell-based; parameters: endogenous in cells; host or cells: MDA-MB-468, T47D, MCF7; conditions: for DC50: T47D cells, read-out: DC50, HDAC3 degradation potency
Source text: Data are presented as representative figures of two independent experiments.
Cells were lysed for WB with antibodies against the indicated proteins. Antibodies against acetylated histones at specific sites (H3K27 and H4K5) and acetyl-lysine were used to assess levels of histone acetylation.
Cells were lysed for WB. […] The indicated BC cell lines were exposed to DMSO, XZ9002, or XZ9002-NC at the indicated concentrations. Colonies were fixed and stained.
Cell lines were obtained from ATCC and subsequently authenticated. Cells were cultured with DMEM supplemented with 10% bovine calf serum, penicillin to 10 units/mL, and streptomycin to 10 μg/mL. For viability assays, 5,000 cells/well were seeded in 96-well plates. […] For colony formation assay, cells (˜1,000 cells/well) were seeded in a 24-well plate in quadruplicates. […] Medium was replaced with freshly prepared medium containing DMSO, XZ9002 or XZ9002-NC every five days until visible colonies appeared, typically in 15 to 20 days after initial cell seeding. Cells were fixed with 4% paraformaldehyde for 15 min and stained with 2% methylene blue in 20% ethanol for 30 min to 1 h. The cells were washed twice with distilled water and dried in air. For western blotting, cell cultures were exposed to compounds as indicated in relevant figures. Medium was removed from culture plate, and 1 x passive lysis buffer was then added, the plates were frozen at −80° C. overnight and thawed at room temperature. The total cell lysates were mixed with a one fifth volume of 6x SDS sample buffer, heated at 95° C. for 5 min and cooled on ice. The lysates were cleared by centrifugation and then subjected to SDS-PAGE and western blotting essentially as described.

T1 sequence (O15379 whole entry, the tested form may be a part): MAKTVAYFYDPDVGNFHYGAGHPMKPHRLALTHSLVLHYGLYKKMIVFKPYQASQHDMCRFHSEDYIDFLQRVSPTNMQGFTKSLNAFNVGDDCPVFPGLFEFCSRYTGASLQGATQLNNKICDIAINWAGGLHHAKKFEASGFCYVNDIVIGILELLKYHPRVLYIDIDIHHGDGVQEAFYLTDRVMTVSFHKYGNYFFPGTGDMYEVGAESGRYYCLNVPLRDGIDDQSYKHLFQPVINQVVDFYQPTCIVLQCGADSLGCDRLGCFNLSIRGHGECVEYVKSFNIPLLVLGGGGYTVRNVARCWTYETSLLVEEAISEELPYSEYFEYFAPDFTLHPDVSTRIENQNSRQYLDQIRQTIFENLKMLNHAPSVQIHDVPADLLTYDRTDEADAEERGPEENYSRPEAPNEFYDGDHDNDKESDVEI
T1 sequence (Q9Y618 395-498 partner limits assumed): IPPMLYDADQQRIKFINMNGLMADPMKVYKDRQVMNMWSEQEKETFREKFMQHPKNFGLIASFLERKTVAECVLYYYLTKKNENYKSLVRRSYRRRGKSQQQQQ
Chain of HDAC3 (O15379 whole entry): as the sequence (O15379 whole entry, the tested form may be a part) above
Chain of HDAC3 (Q9Y618 395-498 partner limits assumed): as the sequence (Q9Y618 395-498 partner limits assumed) above
Chain of HDAC2 (Q92769 whole entry): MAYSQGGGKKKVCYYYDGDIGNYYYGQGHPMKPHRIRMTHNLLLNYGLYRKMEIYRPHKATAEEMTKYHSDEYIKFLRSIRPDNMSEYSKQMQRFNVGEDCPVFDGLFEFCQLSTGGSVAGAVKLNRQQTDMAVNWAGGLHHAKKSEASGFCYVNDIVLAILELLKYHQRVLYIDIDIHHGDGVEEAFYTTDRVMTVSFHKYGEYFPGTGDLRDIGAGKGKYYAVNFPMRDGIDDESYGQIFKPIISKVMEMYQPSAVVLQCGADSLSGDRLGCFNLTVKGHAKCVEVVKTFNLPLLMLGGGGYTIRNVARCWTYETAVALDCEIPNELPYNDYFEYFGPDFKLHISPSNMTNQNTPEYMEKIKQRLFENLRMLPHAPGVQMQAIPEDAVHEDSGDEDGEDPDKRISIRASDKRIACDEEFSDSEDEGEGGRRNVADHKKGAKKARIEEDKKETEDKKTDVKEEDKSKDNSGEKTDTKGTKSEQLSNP
Chain of HDAC1 (Q13547 whole entry): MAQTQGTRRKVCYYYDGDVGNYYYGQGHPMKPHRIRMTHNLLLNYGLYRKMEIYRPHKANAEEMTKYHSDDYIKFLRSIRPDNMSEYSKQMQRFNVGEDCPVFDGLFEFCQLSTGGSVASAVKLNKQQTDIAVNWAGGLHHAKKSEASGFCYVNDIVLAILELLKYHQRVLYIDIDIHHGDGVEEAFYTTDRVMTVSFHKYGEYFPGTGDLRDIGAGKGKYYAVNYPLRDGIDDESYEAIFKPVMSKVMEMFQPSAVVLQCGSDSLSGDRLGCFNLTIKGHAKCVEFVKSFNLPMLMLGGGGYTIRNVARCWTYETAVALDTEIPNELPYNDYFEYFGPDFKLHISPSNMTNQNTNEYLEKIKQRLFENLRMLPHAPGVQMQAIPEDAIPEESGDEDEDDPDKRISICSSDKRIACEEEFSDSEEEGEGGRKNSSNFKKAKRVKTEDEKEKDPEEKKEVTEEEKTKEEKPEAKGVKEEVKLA

CCCNNC(=O)c1ccc(-c2ccc(NC(=O)COCCOCCNc3cccc4c3C(=O)N(C3CCC(=O)NC3=O)C4=O)cc2)cc1 (stereo not drawn) [Compound 7a]
IC50 [1]: 43 ± 18 nM
IC50 (HDAC2): 410 ± 14 nM
IC50 (HDAC1): 82 ± 25 nM

CCCNNC(=O)c1ccc(-c2ccc(NC(=O)COCCOCCOCCNc3cccc4c3C(=O)N(C3CCC(=O)NC3=O)C4=O)cc2)cc1 (stereo not drawn) [Compound 7b, 2-(2-(2-(2-((2-(2,6-dioxopiperidin-3-yl)-1,3-dioxoisoindolin-4-yl)amino)ethoxy)ethoxy)ethoxy)-N-(4′-(20propylhydrazine-1-carbonyl)[1,1′-biphenyl]-4-yl)acetamide]
IC50 [1]: 38 ± 23 nM
IC50 (HDAC2): 400 ± 30 nM
IC50 (HDAC1): 90 ± 14 nM

CCCNNC(=O)c1ccc(-c2ccc(NC(=O)COCCOCCOCCOCCNc3cccc4c3C(=O)N(C3CCC(=O)NC3=O)C4=O)cc2)cc1 (stereo not drawn) [Compound 7c, 14-((2-(2,6-dioxopiperidin-3-yl)-1,3-dioxoisoindolin-4-yl)amino)-N-(4′-(2-propylhydrazine-1-carbonyl)-[1,1′-biphenyl]-4-yl)-3,6,9,12-tetraoxatetradecanamide]
IC50 [1]: 72 ± 15 nM
IC50 (HDAC2): 450 ± 70 nM
IC50 (HDAC1): 125 ± 35 nM
concentration at which HDAC3 is degraded (HDAC3; PROTACs derived from CRBN, breast cancer cell lines): 1.0 µM

CCCNNC(=O)c1ccc(-c2ccc(NC(=O)CCC(=O)N[C@H](C(=O)N3C[C@H](O)C[C@H]3C(=O)N[C@@H](C)c3ccc(-c4scnc4C)cc3)C(C)(C)C)cc2)cc1 [Compound 8a, N^1—((S)-1-((2S,4R)-4-hydroxy-2-(((S)-1-(4-(4-methylthiazol-5-yl)phenyl)ethyl)carbamoyl)pyrrolidine-1-yl)-3,3-dimethyl-1-oxobutan-2-yl)-N^4-(4′-(2-propylhydrazine-1-carbonyl)-[1,1′-biphenyl]-4-yl)succinimide]
IC50 [1]: 140 ± 40 nM
IC50 (HDAC2): 1400 ± 140 nM
IC50 (HDAC1): 300 ± 70 nM

CCCNNC(=O)c1ccc(-c2ccc(NC(=O)CCCCCCCCC(=O)N[C@H](C(=O)N3C[C@H](O)C[C@H]3C(=O)N[C@@H](C)c3ccc(-c4scnc4C)cc3)C(C)(C)C)cc2)cc1 [Compound 8d, N^1—((S)-1-((2S,4R)-4-Hydroxy-2-(((S)-1-(4-(4-methylthiazol-5-yl)phenyl)ethyl)carbamoyl)pyrrolidin-1-yl)-3,3-dimethyl-1-oxobutan-2-yl)-N^10-(4′-(2-propylhydrazine-1-carbonyl)-[1,1′-biphenyl]-4-yl)decanediamide]
IC50 [1]: 550 ± 70 nM
IC50 (HDAC2): 1420 ± 250 nM
IC50 (HDAC1): 1500 ± 140 nM

CCCNNC(=O)c1ccc(N2CCN(C(=O)CCCCC(=O)N[C@H](C(=O)N3C[C@H](O)C[C@H]3C(=O)N[C@@H](C)c3ccc(-c4scnc4C)cc3)C(C)(C)C)CC2)cc1 [Compound 27a, (2S,4R)-1-((S)-3,3-dimethyl-2-(6-oxo-6-(4-(4-(2-propylhydrazine-1-carbonyl)phenyl)piperazin-1-yl)hexanamido)butanoyl)-4-hydroxy-N—((S)-1-(4-(4-methylthiazol-5-yl)phenyl)ethyl)pyrrolidine-2-carboxamide]
DC50 (HDAC3): < 1000 nM

CCCNNC(=O)c1ccc(N2CCN(C(=O)CCCCCCC(=O)N[C@H](C(=O)N3C[C@H](O)C[C@H]3C(=O)N[C@@H](C)c3ccc(-c4scnc4C)cc3)C(C)(C)C)CC2)cc1 [Compound 27b, (2S,4R)-1-((S)-3,3-dimethyl-2-(8-oxo-8-(4-(4-(2-propylhydrazine-1-carbonyl)phenyl)piperazin-1-yl)octanamido)butanoyl)-4-hydroxy-N—((S)-1-(4-(4-methylthiazol-5-yl)phenyl)ethyl)pyrrolidine-2-carboxamide]
DC50 (HDAC3): < 100 nM

CCCNNC(=O)c1ccc(N2CCN(C(=O)CCCCCCCCC(=O)N[C@H](C(=O)N3C[C@H](O)C[C@H]3C(=O)N[C@@H](C)c3ccc(-c4scnc4C)cc3)C(C)(C)C)CC2)cc1 [Compound 27c, (2S,4R)-1-((S)-3,3-dimethyl-2-(10-oxo-10-(4-(4-(2-propylhydrazine-1-carbonyl)phenyl)piperazin-1-yl)decanamido)butanoyl)-4-hydroxy-N—((S)-1-(4-(4-methylthiazol-5-yl)phenyl)ethyl)pyrrolidine-2-carboxamide]
DC50 (HDAC3): < 100 nM

CCCNNC(=O)c1ccc(N2CCN(CCCCCC(=O)N[C@H](C(=O)N3C[C@H](O)C[C@H]3C(=O)N[C@@H](C)c3ccc(-c4scnc4C)cc3)C(C)(C)C)CC2)cc1 [Compound 28a, (2S,4R)-1-((S)-3,3-dimethyl-2-(6-(4-(4-(2-propylhydrazine-1-carbonyl)phenyl)piperazin-1-yl)hexanamido)butanoyl)-4-hydroxy-N—((S)-1-(4-(4-methylthiazol-5-yl)phenyl)ethyl)pyrrolidine-2-carboxamide]
DC50 (HDAC3): < 100 nM

CCCNNC(=O)c1ccc(N2CCN(CCCCCCC(=O)N[C@H](C(=O)N3C[C@H](O)C[C@H]3C(=O)N[C@@H](C)c3ccc(-c4scnc4C)cc3)C(C)(C)C)CC2)cc1 [Compound 28b, (2S,4R)-1-((S)-3,3-dimethyl-2-(7-(4-(4-(2-propylhydrazine-1-carbonyl)phenyl)piperazin-1-yl)heptanamido)butanoyl)-4-hydroxy-N—((S)-1-(4-(4-methylthiazol-5-yl)phenyl)ethyl)pyrrolidine-2-carboxamide]
DC50 (HDAC3): < 100 nM

CCCNNC(=O)c1ccc(N2CCN(CCCCCCCCC(=O)N[C@H](C(=O)N3C[C@H](O)C[C@H]3C(=O)N[C@@H](C)c3ccc(-c4scnc4C)cc3)C(C)(C)C)CC2)cc1 [Compound 28d, (2S,4R)-1-((S)-3,3-dimethyl-2-(9-(4-(4-(2-propylhydrazine-1-carbonyl)phenyl)piperazin-1-yl)nonanamido)butanoyl)-4-hydroxy-N—((S)-1-(4-(4-methylthiazol-5-yl)phenyl)ethyl)pyrrolidine-2-carboxamide]
DC50 (HDAC3): < 100 nM

CCCNNC(=O)c1ccc(N2CCN(CCCCCCCCCC(=O)N[C@H](C(=O)N3C[C@H](O)C[C@H]3C(=O)N[C@@H](C)c3ccc(-c4scnc4C)cc3)C(C)(C)C)CC2)cc1 [Compound 28e, (2S,4R)-1-((S)-3,3-dimethyl-2-(10-(4-(4-(2-propylhydrazine-1-carbonyl)phenyl)piperazin-1-yl)decanamido)butanoyl)-4-hydroxy-N—((S)-1-(4-(4-methylthiazol-5-yl)phenyl)ethyl)pyrrolidine-2-carboxamide]
DC50 (HDAC3): < 1000 nM

CCCNNC(=O)c1ccc(-c2ccc(NC(=O)CCCCCCC(=O)N[C@H](C(=O)N3C[C@@H](O)C[C@@H]3C(=O)N[C@@H](C)c3ccc(-c4scnc4C)cc3)C(C)(C)C)cc2)cc1 [XZ9002-NC, N^1—((S)-1-((2R,4S)-4-Hydroxy-2-(((S)-1-(4-(4-methylthiazol-5-yl)phenyl)ethyl)carbamoyl)pyrrolidin-1-yl)-3,3-dimethyl-1-oxobutan-2-yl)-N^5-(4′-(2-propylhydrazine-1-carbonyl)-[1,1′-biphenyl]-4-yl)octanediamide]
HDAC3 degradation (in words) (HDAC3; MDA-MB-468 cells (FIG. 3B)): did not induce HDAC3 degradation

From US20230181746A1, “BENZOYLHYDRAZIDE-DERIVED HDAC DEGRADERS AS THERAPEUTICS FOR TREATING CANCER AND OTHER HUMAN DISEASES” (University of Florida Research Foundation, Inc., priority 2020, published 2023)
